Laboratory results taken from US11559538B2, “Substituted 1,2-oxaborolan-2-ols as PDE4 inhibitors” (Pfizer Inc., priority 2018, dated 2023).
Read-outs that look alike come from different tables or passages of the source.

Tests used:
IFNγ = assay: Cytokine assay: IFNγ release from PHA-L stimulated human PBMCs; format: cell-based
Outline: (§1)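 HTRF read-out of cytokine in culture supernatants after 48 h. PBMCs (human, ~250,000/well) received compound (4-fold dilutions, 0.25% DMSO) 10 min before PHA-L at 3.5 μg/mL final. IC50 from four-parameter logistic curve.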

[1] = molecular target: PDE4B (aa 152-484, Uniprot ID Q07343) (Homo sapiens (Human), UniProt Q07343); assay: PDE4 SPA assay (scintillation proximity assay); format: biochemical; details: read-out: PDE4B2 IC50
Outline: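 Scintillation proximity read-out after a 30 min room-temperature reaction of ~81.6 pM PDE4B catalytic fragment (aa 152-484) with 1 μM tritiated/unlabeled cAMP, pH 7.5 Tris buffer with MgCl2 and Brij 35. Compound given ~10 min beforehand, 4-fold dilutions, ~2% DMSO; IC50 from four-parameter logistic curve.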

IL-13 = assay: Cytokine assay: IL-13 release from PHA-L stimulated human PBMCs; format: cell-based; details: read-out: IL13 IC50
Outline: as §1

IL-4 = assay: Cytokine assay: IL-4 release from PHA-L stimulated human PBMCs; format: cell-based; details: read-out: IL4 IC50
Outline: as §1

PDE4B (aa 152-484, Uniprot ID Q07343), sequence (Q07343 324-656): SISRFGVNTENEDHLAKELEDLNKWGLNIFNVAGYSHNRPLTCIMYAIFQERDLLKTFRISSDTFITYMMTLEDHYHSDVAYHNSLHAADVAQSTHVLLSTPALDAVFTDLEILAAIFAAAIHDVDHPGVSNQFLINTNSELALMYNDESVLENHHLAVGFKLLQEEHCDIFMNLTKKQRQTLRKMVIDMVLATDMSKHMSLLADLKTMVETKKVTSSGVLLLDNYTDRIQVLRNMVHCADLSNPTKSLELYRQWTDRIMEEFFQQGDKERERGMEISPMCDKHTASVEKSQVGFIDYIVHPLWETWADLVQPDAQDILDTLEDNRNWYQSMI

| Structure (SMILES) | IC50 (IFNγ; Homo sapiens, PBMC) [nM] | IC50 [1] [nM] | IC50 (IL-13) [nM] | IC50 (IL-4) [nM] | IC50 (IL-13; Homo sapiens, PBMC) [nM] | IC50 (IL-4; Homo sapiens, PBMC) [nM] | IC50 (IFNγ) [nM] |
| --- | --- | --- | --- | --- | --- | --- | --- |
| CCCOc1cc(-c2nc(C3COB(O)C3)ns2)ccc1OC (stereo not drawn) [Example 148] | – | 0.24 | 759 | 4.92 | – | – | 1.68 |
| COc1ccc(-c2cncc(C3COB(O)C3)c2)cc1OC1CCSC1 (stereo not drawn) [Example 79, 4-(5-(4-methoxy-3-((tetrahydrothiophen-3-yl)oxy)phenyl)pyridin-3-yl)-1,2-oxaborolan-2-ol] | – | 1.38 | 748 | 13.3 | – | – | 0.82 |
| CCOc1cc(-c2nc(C3COB(O)C3)cs2)ccc1OC (single isomer, unassigned; enantiomer 1) [Example 194, (−) 4-(2-(3-ethoxy-4-methoxyphenyl)thiazol-4-yl)-1,2-oxaborolan-2-ol, enantiomer 1] | 14.7 | 3.63 | – | – | 1540 | 2.85 | – |
| COc1cc(-c2cccc(C3COB(O)C3)c2)cnc1OC (stereo not drawn) [Example 161, 4-(3-(5,6-dimethoxypyridin-3-yl)phenyl)-1,2-oxaborolan-2-ol] | 38.6 | 11.3 | – | – | 960 | 419 | – |
| COc1ccc(-c2cc(C3COB(O)C3)ccn2)cc1OC1CCCC1 (stereo not drawn) [Example 210, 4-(2-(3-(cyclopentyloxy)-4-methoxyphenyl)pyridin-4-yl)-1,2-oxaborolan-2-ol] | 2.4 | 1.92 | – | – | 2390 | 17.6 | – |
| CCCOc1nc(-c2cncc(C3COB(O)C3)c2)c(F)cc1OC (single isomer, unassigned) [Example 16, 4-(3-fluoro-5-methoxy-6-propoxy-[2,3′-bipyridin]-5′-yl)-1,2-oxaborolan-2-ol] | – | 0.05 | 126 | 0.54 | – | – | 0.82 |
| CCOc1cc(-c2cncc(C3COB(O)C3)c2C)ccc1OC (single isomer, unassigned; enantiomer 2) [Example 189, 4-(5-(3-ethoxy-4-methoxyphenyl)-4-methylpyridin-3-yl)-1,2-oxaborolan-2-ol, enantiomer 2] | 1.46 | 2.61 | 1460 | 7.72 | – | – | – |
| CCOc1cc(-c2cc(C3COB(O)C3)cnc2C)ccc1OC (stereo not drawn) [Example 52, 4-(5-(3-ethoxy-4-methoxyphenyl)-6-methylpyridin-3-yl)-1,2-oxaborolan-2-ol] | 5.74 | 9.25 | – | – | 2610 | 14.6 | – |
| COc1ccc(-c2cncc(C3COB(O)C3)c2)cc1OC1CCSCC1 (single isomer, unassigned; enantiomer 1) [Example 170, 4-(5-(4-methoxy-3-((tetrahydro-2H-thiopyran-4-yl)oxy)phenyl)pyridin-3-yl)-1,2-oxaborolan-2-ol, enantiomer 1] | 2.83 | 3.78 | – | – | 1070 | 48.5 | – |
| COc1ccc(-c2cc(C)cc(C3COB(O)C3)c2)cc1OC (stereo not drawn) [Example 207, 4-(3′,4′-dimethoxy-5-methyl-[1,1′-biphenyl]-3-yl)-1,2-oxaborolan-2-ol] | 53.5 | 10.3 | – | – | 1800 | 390 | – |
| COc1ccc(-c2cncc(C3COB(O)C3)c2)cc1OC1CC1 (single isomer, unassigned; enantiomer 1) [Example 193, 4-(5-(3-cyclopropoxy-4-methoxyphenyl)pyridin-3-yl)-1,2-oxaborolan-2-ol, enantiomer 1] | – | 0.63 | 1530 | 73.1 | – | – | 2.16 |
| CCCOc1cc(-c2nc(CO)cc(C3COB(O)C3)n2)ccc1OC (stereo not drawn) [Example 57, 4-(6-(hydroxymethyl)-2-(4-methoxy-3-propoxyphenyl)pyrimidin-4-yl)-1,2-oxaborolan-2-ol] | 2.29 | 10.2 | – | – | 239 | 7.54 | – |
| CCCOc1cc(-c2cccc(C3(C)COB(O)C3)n2)ccc1OC (stereo not drawn) [Example 29, 4-(6-(4-methoxy-3-propoxyphenyl)pyridin-2-yl)-4-methyl-1,2-oxaborolan-2-ol] | 4.82 | 10.5 | – | – | 3470 | 9.51 | – |
| CCCOc1cc(-c2cccc(C3COB(O)C3)c2)ccc1OC (single isomer, unassigned) [Example 90, 4-(4′-methoxy-3′-propoxy-[1,1′-biphenyl]-3-yl)-1,2-oxaborolan-2-ol] | – | 4.33 | 2790 | 290 | – | – | 13.7 |

Results, then the compound that gave them:

| IC50 (IFNγ; Homo sapiens, PBMC) [nM] | IC50 [1] [nM] | IC50 (IL-13) [nM] | IC50 (IL-4) [nM] | IC50 (IL-13; Homo sapiens, PBMC) [nM] | IC50 (IL-4; Homo sapiens, PBMC) [nM] | IC50 (IFNγ) [nM] | Structure (SMILES) |
| --- | --- | --- | --- | --- | --- | --- | --- |
| 2.12 | 0.53 | 499 | 0.73 | – | – | – | CCCOc1nc(-c2cncc(C3COB(O)C3)c2)ccc1OC (single isomer, unassigned) [Example 61, 4-(5-methoxy-6-propoxy-[2,3′-bipyridin]-5′-yl)-1,2-oxaborolan-2-ol] |
| 9.17 | 2.4 | – | – | 2320 | 67.8 | – | CCCOc1cc(-c2cncc(C3=CB(O)OC3)c2)ccc1OC [Example 25, 4-(5-(4-methoxy-3-propoxyphenyl)pyridin-3-yl)-1,2-oxaborol-2(5H)-ol] |
| 1.68 | 1.1 | – | – | 509 | 38.4 | – | CCCOc1cc(-c2cncc(C3COB(O)C3)n2)ccc1OC (stereo not drawn) [Example 115, 4-(6-(4-methoxy-3-propoxyphenyl)pyrazin-2-yl)-1,2-oxaborolan-2-ol] |
| 3.77 | 3.46 | – | – | 317 | 11.8 | – | CCOc1cc(-c2cncc(C3COB(O)C3)c2)c(F)cc1OC (stereo not drawn) [Example 46, 4-(5-(5-ethoxy-2-fluoro-4-methoxyphenyl)pyridin-3-yl)-1,2-oxaborolan-2-ol] |
| 8.12 | 2.17 | – | – | 2490 | 8.94 | – | CCCOc1cc(-c2nc(OC)cc(C3COB(O)C3)n2)ccc1OC (stereo not drawn) [Example 224, 4-(6-methoxy-2-(4-methoxy-3-propoxphenyl)pyrimidin-4-yl)-1,2-oxaborolan-2-ol] |
| 1.87 | 6.85 | – | – | 397 | 6.2 | – | CCOc1c(OC)ccc(-c2cncc(C3COB(O)C3)c2)c1C(F)F (stereo not drawn) [Example 41, 4-(5-(2-(difluoromethyl)-3-ethoxy-4-methoxyphenyl)pyridin-3-yl)-1,2-oxaborolan-2-ol] |
| 3.21 | 1.6 | – | – | 587 | 120 | – | COc1ccc(-c2cccc(C3COB(O)C3)c2)cc1OC1CCCC1 (stereo not drawn) [Example 130, 4-(3′-(cyclopentyloxy)-4′-methoxy-[1,1′-biphenyl]-3-yl)-1,2-oxaborolan-2-ol] |
| 5.43 | 2.15 | – | – | 1500 | 14.6 | – | CCOc1c(OC)ccc(-c2cccc(C3COB(O)C3)c2)c1C#N (single isomer, unassigned; enantiomer 2) [Example 192, 3-ethoxy-3′-(2-hydroxy-1,2-oxaborolan-4-yl)-4-methoxy-[1,1′-biphenyl]-2-carbonitrile, enantiomer 2] |
| 8.84 | 4.28 | – | – | 1420 | 41.1 | – | CCOc1ccc(-c2cncc(C3COB(O)C3)c2)cc1OC (stereo not drawn) [Example 187, 4-(5-(4-ethoxy-3-methoxyphenyl)pyridin-3-yl)-1,2-oxaborolan-2-ol] |
| – | 6.92 | 438 | 2.39 | – | – | 1.62 | CCOc1c(OC)ccc(-c2cncc(C3COB(O)C3)c2)c1C(F)F (single isomer, unassigned; (-)) [Example 10, (−) 4-(5-(2-(difluoromethyl)-3-ethoxy-4-methoxyphenyl)pyridin-3-yl)-1,2-oxaborolan-2-ol] |
| 15.2 | 14.1 | – | – | 893 | 31.4 | – | CCCOc1cc(-c2nc(CO)cc(C3COB(O)C3)n2)c(F)cc1OC (single isomer, unassigned; enantiomer 2) [Example 154, (−) 4-(2-(2-fluoro-4-methoxy-5-propoxyphenyl)-6-(hydroxymethyl)pyrimidin-4-yl)-1,2-oxaborolan-2-ol, enantiomer 2] |
| 8.29 | 14.5 | – | – | 975 | 56.3 | – | COc1ccc(-c2cccc(C3COB(O)C3)n2)c(F)c1OC (stereo not drawn) [Example 162, 4-(6-(2-fluoro-3,4-dimethoxyphenyl)pyridin-2-yl)-1,2-oxaborolan-2-ol] |
| 6.21 | 0.85 | – | – | 375 | 103 | – | CCOc1cc(-c2nc(C3COB(O)C3)ns2)ccc1OC (stereo not drawn) [Example 72, 4-(5-(3-ethoxy-4-methoxyphenyl)-1,2,4-thiadiazol-3-yl)-1,2-oxaborolan-2-ol] |
| 1.54 | 3.01 | – | – | 143 | 4.11 | – | CCOc1cc(-c2cncc(C3COB(O)C3)c2)c(Cl)cc1OC (stereo not drawn) [Example 47, 4-(5-(2-chloro-5-ethoxy-4-methoxyphenyl)pyridin-3-yl)-1,2-oxaborolan-2-ol] |
| 5.13 | 4.43 | – | – | 1400 | 31.4 | – | CCOc1cc(-c2nc(OC)cc(C3COB(O)C3)n2)ccc1OC (single isomer, unassigned; enantiomer 2) [Example 186, (−) 4-(2-(3-ethoxy-4-methoxyphenyl)-6-methoxypyrimidin-4-yl)-1,2-oxaborolan-2-ol, enantiomer 2] |
| 14.2 | 3.71 | – | – | 2510 | 31.1 | – | CCOc1c(OC)cc(F)c(-c2cncc(C3COB(O)C3)c2)c1F (stereo not drawn) [Example 163, 4-(5-(3-ethoxy-2,6-difluoro-4-methoxyphenyl)pyridin-3-yl)-1,2-oxaborolan-2-ol] |
